Calls of active or inactive are those of the source. The calls are words filed in the database; no cut-off is given here.
Tests used:
MCF7 [1] = test: Cytotoxicity against human MCF7 cells assessed as growth inhibition at 1 uM after 5 days by MTT assay relative to vehicle-treated control; format: functional; conditions: MCF7, 120 h, read-out: GI
MDA-MB-231 [2] = test: Cytotoxicity against human MDA-MB-231 cells assessed as growth inhibition at 1 uM after 5 days by MTT assay relative to vehicle-treated control; format: functional
[3] = Cytotoxicity against human MCF10A cells assessed as growth inhibition at 1 uM after 5 days by MTT assay relative to vehicle-treated control; format: cell-based; conditions: mcf-10a, 120 h
MDA-MB-231 [4] = test: Cytotoxicity against human MDA-MB-231 cells assessed as cell viability after 5 days by MTT assay; format: functional, cell-based; conditions: MDA-MB-231, 120 h
[5] = Cytotoxicity against rat R2C cells assessed as growth inhibition by MTT assay; format: functional, cell-based
[6] = Cytotoxicity against human MCF10A cells assessed as cell viability after 5 days by MTT assay; format: cell-based; conditions: MCF-10A, 120 h
HeLa = test: Cytotoxicity against human HeLa cells assessed as growth inhibition by MTT assay; format: functional, cell-based
MCF7 [7] = test: Cytotoxicity against human MCF7 cells assessed as cell viability after 5 days by MTT assay; format: functional, cell-based; conditions: MCF7, 120 h
Ishikawa = test: Cytotoxicity against human Ishikawa cells assessed as growth inhibition by MTT assay; format: functional, cell-based
[8] = target: DNA topoisomerase 2-alpha (Homo sapiens) (UniProt P11388); conditions: 10 uM
DNA topoisomerase 2-alpha (Homo sapiens), sequence (P11388 whole entry): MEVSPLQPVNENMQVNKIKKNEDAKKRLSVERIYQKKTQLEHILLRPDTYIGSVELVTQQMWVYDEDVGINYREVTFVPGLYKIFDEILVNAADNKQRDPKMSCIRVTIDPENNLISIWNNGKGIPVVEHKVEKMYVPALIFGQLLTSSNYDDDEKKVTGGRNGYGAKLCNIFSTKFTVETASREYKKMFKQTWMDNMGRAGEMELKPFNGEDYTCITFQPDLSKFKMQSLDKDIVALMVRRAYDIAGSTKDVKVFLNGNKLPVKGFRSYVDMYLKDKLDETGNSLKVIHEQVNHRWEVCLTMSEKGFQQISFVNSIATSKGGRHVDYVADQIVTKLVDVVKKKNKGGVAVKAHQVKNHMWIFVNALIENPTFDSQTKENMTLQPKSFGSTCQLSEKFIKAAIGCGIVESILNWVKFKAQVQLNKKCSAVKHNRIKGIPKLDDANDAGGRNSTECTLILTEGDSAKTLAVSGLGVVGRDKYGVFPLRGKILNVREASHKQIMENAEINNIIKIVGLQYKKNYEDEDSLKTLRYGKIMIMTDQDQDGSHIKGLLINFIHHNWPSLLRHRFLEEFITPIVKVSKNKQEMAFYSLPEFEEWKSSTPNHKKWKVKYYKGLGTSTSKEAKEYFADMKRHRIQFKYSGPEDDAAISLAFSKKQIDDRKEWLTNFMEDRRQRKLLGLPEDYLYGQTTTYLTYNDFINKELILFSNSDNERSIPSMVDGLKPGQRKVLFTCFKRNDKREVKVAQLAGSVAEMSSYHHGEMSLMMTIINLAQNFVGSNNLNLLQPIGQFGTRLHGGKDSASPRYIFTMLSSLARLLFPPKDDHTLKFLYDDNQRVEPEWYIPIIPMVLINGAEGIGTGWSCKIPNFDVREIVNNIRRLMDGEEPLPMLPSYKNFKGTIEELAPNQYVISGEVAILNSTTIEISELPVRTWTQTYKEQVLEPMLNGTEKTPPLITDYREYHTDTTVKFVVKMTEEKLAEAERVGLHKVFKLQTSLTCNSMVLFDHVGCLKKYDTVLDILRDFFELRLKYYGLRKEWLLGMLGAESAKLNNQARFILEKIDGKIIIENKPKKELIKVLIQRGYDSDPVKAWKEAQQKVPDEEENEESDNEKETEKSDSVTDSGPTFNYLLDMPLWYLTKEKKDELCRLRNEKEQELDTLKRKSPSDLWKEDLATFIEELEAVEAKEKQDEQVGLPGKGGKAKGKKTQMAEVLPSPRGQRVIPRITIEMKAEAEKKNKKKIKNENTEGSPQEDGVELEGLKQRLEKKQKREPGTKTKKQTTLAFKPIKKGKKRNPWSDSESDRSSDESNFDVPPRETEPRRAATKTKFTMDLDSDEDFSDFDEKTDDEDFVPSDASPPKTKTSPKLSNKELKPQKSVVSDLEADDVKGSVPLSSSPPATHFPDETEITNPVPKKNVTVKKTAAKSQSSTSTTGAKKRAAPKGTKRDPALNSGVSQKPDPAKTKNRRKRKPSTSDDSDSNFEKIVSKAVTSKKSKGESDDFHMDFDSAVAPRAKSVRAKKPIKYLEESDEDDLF
Description: Inhibition of human topoisomerase 2 assessed as decatenation of kDNA at 10 uM after 30 mins by agarose gel electrophoresis

[9] = target: T1, DNA topoisomerase 1 (Homo sapiens) (UniProt P11387); test: Inhibition of recombinant human topoisomerase 1 assessed as relaxation of supercoiled pHOT1 at 50 uM after 30 mins by agarose gel electrophoresis
T1 sequence (whole entry): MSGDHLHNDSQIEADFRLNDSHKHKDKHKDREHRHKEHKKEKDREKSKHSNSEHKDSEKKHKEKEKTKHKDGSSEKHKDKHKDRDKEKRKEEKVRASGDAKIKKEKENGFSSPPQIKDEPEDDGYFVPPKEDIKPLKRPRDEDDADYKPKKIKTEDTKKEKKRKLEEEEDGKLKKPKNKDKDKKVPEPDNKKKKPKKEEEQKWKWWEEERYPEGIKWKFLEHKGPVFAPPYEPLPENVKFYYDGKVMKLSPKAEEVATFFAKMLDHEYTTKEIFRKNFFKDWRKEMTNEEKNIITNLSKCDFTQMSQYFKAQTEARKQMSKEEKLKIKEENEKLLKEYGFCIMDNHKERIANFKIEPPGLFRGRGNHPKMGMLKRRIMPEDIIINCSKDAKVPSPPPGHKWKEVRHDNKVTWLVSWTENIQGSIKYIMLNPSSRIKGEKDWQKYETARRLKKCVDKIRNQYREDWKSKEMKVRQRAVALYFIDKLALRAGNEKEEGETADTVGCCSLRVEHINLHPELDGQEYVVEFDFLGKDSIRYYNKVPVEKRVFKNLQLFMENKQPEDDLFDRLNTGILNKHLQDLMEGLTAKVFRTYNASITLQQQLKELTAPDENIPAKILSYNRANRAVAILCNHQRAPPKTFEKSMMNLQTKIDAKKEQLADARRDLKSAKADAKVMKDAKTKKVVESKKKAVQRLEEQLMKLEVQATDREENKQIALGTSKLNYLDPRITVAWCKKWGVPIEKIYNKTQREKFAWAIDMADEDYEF

HepG2 = test: Cytotoxicity against human HepG2 cells assessed as growth inhibition by MTT assay; format: functional, cell-based
[10] = Cytotoxicity against human MCF-7 TR1 cells assessed as cell colony formation after 14 days by crystal violet staining-based assay; format: functional; conditions: MCF-7 TR1, 336 h
[11] = target: T1, DNA topoisomerase 1 (Homo sapiens); test: Inhibition of recombinant human topoisomerase 1 assessed as relaxation of supercoiled pHOT1 at 10 uM after 30 mins by agarose gel electrophoresis
[12] = target: DNA topoisomerase 2-alpha (Homo sapiens) (UniProt P11388); conditions: 50 uM
Description: Inhibition of human topoisomerase 2 assessed as decatenation of kDNA at 50 uM after 30 mins by agarose gel electrophoresis

CCN(CC)c1nc2c(OC)cc3c4ccccc4oc3c2c(=O)[nH]1
inhibition of growth at 1 µM (MCF7 [1]): 15% | growth inhibition (GI) (MDA-MB-231 [2]): Active | Activity [3]: Non-toxic

CCCN(CCC)c1nc2c(OC)cc3c4ccccc4oc3c2c(=O)[nH]1
inhibition of growth at 1 µM (MCF7 [1]): 37% | growth inhibition (GI) (MDA-MB-231 [2]): Active | Activity [3]: Non-toxic

CCN(CC)c1nc2ccc3c4ccccc4oc3c2c(=O)[nH]1
inhibition of growth at 1 µM (MCF7 [1]): 10% | growth inhibition (GI) (MDA-MB-231 [2]): Active | Activity [3]: Non-toxic

Cc1c2ccncc2c(C)c2c1[nH]c1ccccc12 [ELLIPTECINE]
IC50 (MDA-MB-231 [4]): 1.82 µM | IC50 [5]: 2 µM | IC50 [6]: 1.2 µM | IC50 (HeLa): 1 µM | IC50 (MCF7 [7]): 1.25 µM | IC50 (Ishikawa): 1.5 µM | inhibition [8]: Active | inhibition [9]: Active | IC50 (HepG2): 2.9 µM | IC50 [10]: 1.75 µM | inhibition [11]: Active | inhibition [12]: Active
